In paper PMC7377239, “Cardiovascular Effects of Polychlorinated Biphenyls and Their Major Metabolites” (Environmental Health Perspectives, 2020):
Read-outs that look alike come from different tables or passages of the source.

Experiments:
HUVECs [1] = assay: Tube formation (tubulogenesis) assay in HUVECs, 18 h; assay type: cell-based, human; conditions: Homo sapiens, HUVEC, 18 h, HUVECs; for activity at 0.1 µM: 0.10 µM; for minimal effective concentration: top concentration 100.00 µM
Outline: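 HUVECs (passage 1–5) seeded on reduced-growth-factor basement membrane and exposed to compounds overnight at 37°C, 5% CO2, in 2× maintenance medium with 12.5 ng/mL VEGF; 0.5% DMSO vehicle. Calcein AM-stained tube networks imaged and analysed; vehicle-normalized readouts fit to four-parameter logistic, POD set at one SD of vehicle means.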

HUVECs [2] = assay: High-content imaging cytotoxicity in HUVECs, 24 h; assay type: cell-based, human; conditions: Homo sapiens, HUVEC, 24 h, HUVECs; for viability at 0.01 µM / activity at 0.01 µM / viability at 0.1 µM / activity at 0.1 µM / viability at 1 µM / activity at 1 µM / viability at 10 µM / activity at 10 µM / viability at 100 µM / activity at 100 µM: 0.00 µM = 100.00; for viability at 0.1 µM / activity at 0.1 µM: 0.10 µM; for minimal effective concentration: top concentration 100.00 µM
Outline: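 Point-of-departure values come from four-parameter logistic fits of vehicle-normalized (0.5% DMSO) imaging readouts, cutoff one SD of vehicle means, 100μM where no concentration–response. Cells: HUVEC monolayers, passages 1–5, treated 24 h at 37°C, 5% CO2, then Hoechst 33342/MitoTracker Orange/calcein AM stained, imaged at 10×.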

[3] = 0.00 µM = 100.00, read-out: huvec.mtl.18hr
[4] = 0.00 µM = 100.00, read-out: huvec.tlps.18hr
[5] = 0.00 µM = 100.00, read-out: huvec.tta.18hr
[6] = 0.00 µM = 100.00, read-out: huvec.ttl.18hr
[7] = 24 hr, read-out: huvec.cyto.24hr
[8] = 24 hr, read-out: huvec.mito.24hr
[9] = 24 hr, read-out: huvec.mitoint.24hr
[10] = 24 hr, read-out: huvec.nma.24hr
[11] = 24 hrs, read-out: huvec.tc.24hrs

Oc1cccc(-c2ccc(Cl)cc2)c1 [3'-OH PCB3]
activity at 0.01 µM (HUVECs [1]; [3]): 96.9% | activity at 0.01 µM (HUVECs [1]; [4]): 88.1% | activity at 0.01 µM (HUVECs [1]; [5]): 90.6% | activity at 0.01 µM (HUVECs [1]; [6]): 92% | activity at 0.1 µM (HUVECs [1]; [3]): 102% | activity at 0.1 µM (HUVECs [1]; [4]): 83.7% | activity at 0.1 µM (HUVECs [1]; [5]): 124% | activity at 0.1 µM (HUVECs [1]; [6]): 127% | activity at 1 µM (HUVECs [1]; [3]): 93% | activity at 1 µM (HUVECs [1]; [4]): 89.2% | activity at 1 µM (HUVECs [1]; [5]): 91.7% | activity at 1 µM (HUVECs [1]; [6]): 95.4% | activity at 10 µM (HUVECs [1]; [3]): 70.2% | activity at 10 µM (HUVECs [1]; [4]): 66.1% | activity at 10 µM (HUVECs [1]; [5]): 58.6% | activity at 10 µM (HUVECs [1]; [6]): 61.5% | activity at 100 µM (HUVECs [1]; [3]): 72.3% | activity at 100 µM (HUVECs [1]; [4]): 25.9% | activity at 100 µM (HUVECs [1]; [5]): 17.3% | activity at 100 µM (HUVECs [1]; [6]): 15.5% | minimal effective concentration (HUVECs [1]; read-out: huvec.mtl.18hr POD): 1.14 µM | minimal effective concentration (HUVECs [1]; read-out: huvec.tlps.18hr POD): 1.01 µM | minimal effective concentration (HUVECs [1]; read-out: huvec.tta.18hr POD): 3.65 µM | minimal effective concentration (HUVECs [1]; read-out: huvec.ttl.18hr POD): 3.26 µM | viability at 0.01 µM (HUVECs [2]; [7]): 89.2% | activity at 0.01 µM (HUVECs [2]; [8]): 89.3% | activity at 0.01 µM (HUVECs [2]; [9]): 101% | activity at 0.01 µM (HUVECs [2]; [10]): 97.3% | viability at 0.1 µM (HUVECs [2]; [7]): 100% | activity at 0.1 µM (HUVECs [2]; [8]): 100% | activity at 0.1 µM (HUVECs [2]; [9]): 111% | activity at 0.1 µM (HUVECs [2]; [10]): 92.6% | viability at 1 µM (HUVECs [2]; [7]): 94.4% | activity at 1 µM (HUVECs [2]; [8]): 93.7% | activity at 1 µM (HUVECs [2]; [9]): 104% | activity at 1 µM (HUVECs [2]; [10]): 92% | viability at 10 µM (HUVECs [2]; [7]): 70.9% | activity at 10 µM (HUVECs [2]; [8]): 66.2% | activity at 10 µM (HUVECs [2]; [9]): 108% | activity at 10 µM (HUVECs [2]; [10]): 84.9% | viability at 100 µM (HUVECs [2]; [7]): 63.7% | activity at 100 µM (HUVECs [2]; [8]): 77.8% | activity at 100 µM (HUVECs [2]; [9]): 19.3% | activity at 100 µM (HUVECs [2]; [10]): 68.8% | minimal effective concentration (HUVECs [2]; 24 hr, read-out: huvec.cyto.24hr POD): 1.1 µM | minimal effective concentration (HUVECs [2]; 24 hr, read-out: huvec.mito.24hr POD): 0.97 µM | minimal effective concentration (HUVECs [2]; 24 hr, read-out: huvec.mitoint.24hr POD): 41.4 µM | minimal effective concentration (HUVECs [2]; 24 hr, read-out: huvec.nma.24hr POD): 0.04 µM | viability at 0.01 µM (HUVECs [2]; [11]): 89.2% | viability at 0.1 µM (HUVECs [2]; [11]): 100% | viability at 1 µM (HUVECs [2]; [11]): 94.6% | viability at 10 µM (HUVECs [2]; [11]): 71% | viability at 100 µM (HUVECs [2]; [11]): 83.9% | minimal effective concentration (HUVECs [2]; 24 hrs, read-out: huvec.tc.24hrs POD): 1.1 µM
